Measured values taken from patent publication US20260317344A1, “EGFR INHIBITORS FOR TREATING DISEASE” (BLOSSOMHILL THERAPEUTICS, INC., priority 2023, published 2026).

Tests used:
[1] = molecular target: EGFR (D770_N771insNPG) (Homo sapiens, UniProt P00533, INS770NPG); experiment: HotSpot radiometric kinase assay, inhibition of EGFR (D770_N771insNPG) mutant; type: biochemical; conditions: 33P ATP, room temperature, 120 m
Description: (§1) Biochemical Assays for inhibition of wild-type and mutant EGFRs
(§2) Briefly, specific kinase/substrate pairs along with required cofactors were prepared in reaction buffer; 20 mM HEPES pH 7.5, 10 mM […], 1 mM EGTA, 0.02% Brij35, 0.02 mg/ml BSA, 0.1 mM Na3VO4, 2 mM DTT, 1% DMSO. Compounds were delivered into the reaction, followed ~20 minutes later by addition of a mixture of ATP (Sigma, St. Louis MO) and ^33P ATP (Perkin Elmer, Waltham MA) to a final concentration of […]. Reactions were carried out at room temperature for 120 m, followed by spotting of the reactions onto P81 ion exchange filter paper (Whatman Inc., Piscataway, NJ). Unbound phosphate was removed by extensive washing of filters in 0.75% phosphoric acid. […] IC50 values and curve fits were obtained using Prism (GraphPad Software).

[2] = system: PC-9 cells; experiment: 5-Day CellTiter Glo (CTG) cell proliferation assay, PC-9; type: cell-based; conditions: Homo sapiens; PC-9 cells (d746-750 EGFR), 5-day CTG proliferation, 120 hours; read-out: PC-9 IC50
Description: (§3) 5-Day CellTiter Glo (CTG) Cell Proliferation Assays (PC9, H1975, H827)
(§4) Cell proliferation assays were carried out in NSCLC cells with EGFR activation mutations. Both PC-9 cells and HCC827 cells (purchased from DSMZ) carry a Glu746-Ala750 deletion (d746-750) mutation in exon 19 of the EGFR gene and NCI-H1975 cells carry both L858R activation mutation and T790M gatekeeper mutation in the EGFR gene. One thousand PC-9, NCI-H1975 or HCC827 cells/100 μL per well were seeded in 96-well black plate with transparent bottom and then treated with indicated compounds in a 9-dose dilution series dispensed using TECAN d300e liquid dispenser. Cells were incubated with compounds for 120 hours at 37° C. and 5% CO2. Cell proliferation was measured using CellTiter-Glo 2.0 luciferase-based ATP detection assay (Promega, Madison, WI) at […] per well following the manufacturer's protocol. Plates were then read on a TECAN Sparks multimode microplate reader. Data was analyzed using GraphPad Prism 9 (GraphPad Software, San Diego, CA) to obtain IC50 values.

[3] = molecular target: T1, pEGFR, A431 cells (wildtype EGFR) (Homo sapiens, UniProt P00533); experiment: Cellular EGFR phosphorylation assay (LANCE Ultra TR-FRET) in A431 cells; type: cell-based; conditions: 4 hours at 37° C., 40 ng/mL EGF for the final 10 minutes, read-out: A431 pEGFR IC50
T1 construct: pEGFR (Tyr1068) TR-FRET
Description: (§5) Cellular EGFR Phosphorylation Assays
(§6) EGFR phosphorylation assays were conducted in NSCLC cells with EGFR activation mutations. PC-9 cells (purchased from Aldrich-Sigma) carry a Glu746-Ala750 deletion (d746-750) mutation in exon 19 of the EGFR gene and NCI-H1975 cells (purchased from ATCC) carry both L858R activation mutation and T790M gatekeeper mutation in the EGFR gene. A431 cells (purchased from ATCC) with amplification of wildtype EGFR, derived from epidermoid carcinoma, were used to measure the activity against wildtype EGFR. All cells were seeded in 96-well plates. For PC-9 and NCI-H1975 cells, 50 thousand cells were seeded per well. For A431 cells, 30 thousand cells were seeded per well. The next day, cells were exposed to compound for 4 hours at 37° C. and 5% CO2. Compounds were diluted in DMSO and added to cells in a 9-dose, 3-fold dilution, titration curve using TECAN d300e liquid dispenser. For A431 cells, 40 ng/mL of EGF was added to the media for the final 10 minutes of incubation. EGFR phosphorylation was measured using phospho-EGFR (Try1068) LANCE Ultra TR-FRET Detection Kit (TRF4015M) from PerkinElmer according to manufacturer's instructions. In brief, cells were lysed with 40 μL of lysis buffer plus 1× Halt protease and phosphatase inhibitor cocktail (Thermo 78441) and by incubation at room temperature for 1 h on a microplate shaker (350 rpm). 15 μ L of cell lysate was transferred to 384-well white plate and 5 μL of Europium- and ULight-labeled antibodies diluted in 1× detection buffer was added to each well. After 4-6 hours of incubation at room temperature, plates were then read on a TECAN Sparks multimode microplate reader. Data was analyzed using GraphPad Prism 9 (GraphPad Software, San Diego, CA) to obtain IC50 values.

[4] = system: HCC827 cells; experiment: 5-Day CellTiter Glo (CTG) cell proliferation assay, HCC827; type: cell-based; conditions: Homo sapiens; HCC827 cells (d746-750 EGFR), 5-day CTG proliferation, 120 hours; read-out: HCC827 IC50
Description: as §3, §4

[5] = molecular target: T2, pEGFR, NCI-H1975 cells (L858R/T790M EGFR) (Homo sapiens, UniProt P00533, L858R/T790M); experiment: Cellular EGFR phosphorylation assay (LANCE Ultra TR-FRET) in NCI-H1975 cells; type: cell-based; conditions: 4 hours at 37° C., read-out: H1975 pEGFR IC50
T2 construct: pEGFR (Tyr1068) TR-FRET
Description: as §5, §6

[6] = system: NCI-H1975 cells; experiment: 5-Day CellTiter Glo (CTG) cell proliferation assay, NCI-H1975; type: cell-based; conditions: Homo sapiens; NCI-H1975 cells (L858R/T790M EGFR), 5-day CTG proliferation, 120 hours; read-out: H1975 IC50
Description: as §3, §4

[7] = molecular target: EGFR (D746-750/C797S) (Homo sapiens, UniProt P00533, C797S/DEL746-750); experiment: HotSpot radiometric kinase assay, inhibition of EGFR 746-750/C797S mutant; type: biochemical; conditions: 33P ATP, room temperature, 120 m
Description: as §1, §2

[8] = molecular target: T3, pEGFR, PC-9 cells (d746-750 EGFR) (Homo sapiens, UniProt P00533, DEL746-750); experiment: Cellular EGFR phosphorylation assay (LANCE Ultra TR-FRET) in PC-9 cells; type: cell-based; conditions: 4 hours at 37° C., read-out: PC-9 pEGFR IC50
T3 construct: pEGFR (Tyr1068) TR-FRET
Description: as §5, §6

[9] = molecular target: EGFR (L858R/T790M/C797S) (Homo sapiens, UniProt P00533, C797S/L858R/T790M); experiment: HotSpot radiometric kinase assay, inhibition of EGFR L858R/T790M/C797S mutant; type: biochemical; conditions: 33P ATP, room temperature, 120 m
Description: as §1, §2

[10] = molecular target: EGFR (D746-750) (Homo sapiens, UniProt P00533, DEL746-750); experiment: HotSpot radiometric kinase assay, inhibition of EGFR 746-750 mutant; type: biochemical; conditions: 33P ATP, room temperature, 120 m
Description: as §1, §2

Chain of EGFR (D746-750/C797S) (P00533 with tags, fused parts or gaps DEL746-750/C797S): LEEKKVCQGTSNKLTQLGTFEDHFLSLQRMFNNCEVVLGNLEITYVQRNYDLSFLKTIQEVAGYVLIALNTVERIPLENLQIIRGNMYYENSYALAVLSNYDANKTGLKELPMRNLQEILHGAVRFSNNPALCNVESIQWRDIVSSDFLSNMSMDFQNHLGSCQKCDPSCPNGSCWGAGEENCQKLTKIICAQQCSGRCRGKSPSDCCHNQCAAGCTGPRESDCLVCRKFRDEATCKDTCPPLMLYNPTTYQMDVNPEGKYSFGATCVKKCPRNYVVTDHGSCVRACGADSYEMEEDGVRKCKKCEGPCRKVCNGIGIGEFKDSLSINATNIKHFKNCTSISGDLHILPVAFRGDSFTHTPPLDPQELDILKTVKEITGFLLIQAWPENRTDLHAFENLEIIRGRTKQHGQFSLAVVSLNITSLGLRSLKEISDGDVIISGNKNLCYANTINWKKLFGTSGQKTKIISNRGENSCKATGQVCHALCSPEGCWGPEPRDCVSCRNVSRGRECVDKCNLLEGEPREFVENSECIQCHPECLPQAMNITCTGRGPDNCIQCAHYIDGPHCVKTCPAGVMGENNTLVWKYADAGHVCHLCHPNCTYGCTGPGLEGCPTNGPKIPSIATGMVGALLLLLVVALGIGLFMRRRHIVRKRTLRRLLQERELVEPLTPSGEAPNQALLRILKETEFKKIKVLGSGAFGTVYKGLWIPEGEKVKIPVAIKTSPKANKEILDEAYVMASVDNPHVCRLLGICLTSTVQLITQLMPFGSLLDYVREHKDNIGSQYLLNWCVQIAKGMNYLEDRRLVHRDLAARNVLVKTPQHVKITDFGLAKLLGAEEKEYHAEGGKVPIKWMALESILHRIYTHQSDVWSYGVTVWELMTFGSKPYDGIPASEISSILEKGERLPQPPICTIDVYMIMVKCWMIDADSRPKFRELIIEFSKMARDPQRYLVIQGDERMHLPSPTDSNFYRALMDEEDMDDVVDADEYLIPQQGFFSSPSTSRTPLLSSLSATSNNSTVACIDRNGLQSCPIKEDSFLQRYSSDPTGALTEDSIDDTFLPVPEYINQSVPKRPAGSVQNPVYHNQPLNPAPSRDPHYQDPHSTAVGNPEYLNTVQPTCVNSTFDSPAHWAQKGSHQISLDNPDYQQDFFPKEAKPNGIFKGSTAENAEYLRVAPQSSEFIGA
T3 sequence (P00533 with tags, fused parts or gaps DEL746-750): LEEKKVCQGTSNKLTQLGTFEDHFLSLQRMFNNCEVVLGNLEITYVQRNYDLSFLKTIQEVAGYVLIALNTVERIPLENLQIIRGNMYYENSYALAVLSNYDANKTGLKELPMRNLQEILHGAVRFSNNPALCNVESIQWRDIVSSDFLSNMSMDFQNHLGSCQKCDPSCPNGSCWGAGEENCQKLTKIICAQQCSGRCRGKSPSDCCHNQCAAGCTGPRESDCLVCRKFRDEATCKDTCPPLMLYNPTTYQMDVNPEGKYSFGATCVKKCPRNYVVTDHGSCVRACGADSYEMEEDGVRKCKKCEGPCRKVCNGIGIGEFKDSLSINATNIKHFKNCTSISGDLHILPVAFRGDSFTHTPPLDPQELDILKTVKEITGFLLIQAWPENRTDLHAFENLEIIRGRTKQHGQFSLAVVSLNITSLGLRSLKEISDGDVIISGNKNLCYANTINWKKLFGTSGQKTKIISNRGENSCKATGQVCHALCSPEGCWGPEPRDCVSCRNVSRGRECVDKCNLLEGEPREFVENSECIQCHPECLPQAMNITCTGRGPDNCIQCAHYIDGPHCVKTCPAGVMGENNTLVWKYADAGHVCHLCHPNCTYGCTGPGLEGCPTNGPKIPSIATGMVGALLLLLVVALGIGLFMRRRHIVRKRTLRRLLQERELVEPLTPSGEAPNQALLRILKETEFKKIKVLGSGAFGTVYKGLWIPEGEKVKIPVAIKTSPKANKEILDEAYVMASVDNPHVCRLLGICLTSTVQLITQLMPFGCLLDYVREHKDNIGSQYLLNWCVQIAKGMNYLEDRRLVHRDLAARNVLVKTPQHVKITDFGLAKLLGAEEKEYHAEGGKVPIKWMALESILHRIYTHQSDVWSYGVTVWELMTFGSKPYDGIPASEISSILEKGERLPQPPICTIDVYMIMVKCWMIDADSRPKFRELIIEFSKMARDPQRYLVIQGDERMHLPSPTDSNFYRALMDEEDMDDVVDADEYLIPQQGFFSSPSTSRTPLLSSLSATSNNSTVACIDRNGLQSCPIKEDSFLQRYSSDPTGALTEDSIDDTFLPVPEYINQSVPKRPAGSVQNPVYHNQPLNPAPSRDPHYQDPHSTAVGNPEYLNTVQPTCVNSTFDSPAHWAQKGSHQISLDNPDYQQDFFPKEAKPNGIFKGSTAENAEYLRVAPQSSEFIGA
Chain of EGFR (D746-750) (P00533 with tags, fused parts or gaps DEL746-750): as above
T1 sequence (P00533 25-1210): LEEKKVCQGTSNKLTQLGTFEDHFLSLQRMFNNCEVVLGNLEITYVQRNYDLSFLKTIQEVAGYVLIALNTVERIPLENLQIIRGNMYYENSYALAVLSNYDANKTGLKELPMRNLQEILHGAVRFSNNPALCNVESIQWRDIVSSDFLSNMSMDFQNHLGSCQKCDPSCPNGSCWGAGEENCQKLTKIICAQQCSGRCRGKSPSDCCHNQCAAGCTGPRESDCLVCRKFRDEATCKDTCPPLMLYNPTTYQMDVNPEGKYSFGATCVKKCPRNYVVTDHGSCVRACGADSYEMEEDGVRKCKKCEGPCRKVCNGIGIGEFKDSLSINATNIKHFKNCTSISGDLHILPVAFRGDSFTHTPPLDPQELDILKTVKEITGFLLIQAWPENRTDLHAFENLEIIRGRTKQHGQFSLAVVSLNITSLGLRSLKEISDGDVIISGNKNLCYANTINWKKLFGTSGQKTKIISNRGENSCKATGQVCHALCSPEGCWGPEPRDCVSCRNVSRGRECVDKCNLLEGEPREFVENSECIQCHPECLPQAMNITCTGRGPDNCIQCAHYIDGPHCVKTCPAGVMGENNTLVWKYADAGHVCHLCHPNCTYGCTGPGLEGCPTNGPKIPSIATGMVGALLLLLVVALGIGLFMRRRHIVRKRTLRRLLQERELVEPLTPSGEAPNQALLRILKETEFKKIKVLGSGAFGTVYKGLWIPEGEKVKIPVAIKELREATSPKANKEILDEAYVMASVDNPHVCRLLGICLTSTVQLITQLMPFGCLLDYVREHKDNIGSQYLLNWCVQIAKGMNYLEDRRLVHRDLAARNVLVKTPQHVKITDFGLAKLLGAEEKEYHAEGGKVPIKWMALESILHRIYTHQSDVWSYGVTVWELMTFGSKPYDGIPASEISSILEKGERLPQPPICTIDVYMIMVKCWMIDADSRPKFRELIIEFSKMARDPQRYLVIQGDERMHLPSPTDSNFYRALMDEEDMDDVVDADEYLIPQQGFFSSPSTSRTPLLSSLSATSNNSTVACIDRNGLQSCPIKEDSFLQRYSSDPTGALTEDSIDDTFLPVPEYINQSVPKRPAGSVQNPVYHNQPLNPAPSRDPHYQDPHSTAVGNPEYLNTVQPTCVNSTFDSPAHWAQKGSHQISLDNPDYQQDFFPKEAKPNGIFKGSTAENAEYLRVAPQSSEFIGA

Structure (SMILES)	IC50 [1] [nM]	IC50 [2] [nM]	IC50 [3] [nM]	IC50 [4] [nM]	IC50 [5] [nM]	IC50 [6] [nM]	IC50 [7] [nM]	IC50 [8] [nM]	IC50 [9] [nM]	IC50 [10] [nM]
CCOc1nn(CCO)c2c1/C=C/c1n[nH]c3cnc(cc13)-c1c(C)nn(C)c1OCCN(C)C2 [Ex. 68, 2-[(17E)-16-ethoxy-6,8,12-trimethyl-2,8,10,11,12,13-hexahydro-14H-5,3-(azenometheno)tripyrazolo[3,4-f:3′,4′-j:4″,3″-n][1,4]oxazacyclopentadecin-14-yl]ethan-1-ol]	0.95	15.4	21	2.49	6.39	227	1.18	6.22	0.44	0.33
Cc1nn(C)c2c1-c1cc3c(n[nH]c3c(C)n1)/C=C/c1c(OCC#N)nn(CCO)c1CN(C)C[C@H](C)O2 [Ex. 63, {[(10S,17E)-14-(2-hydroxyethyl)-6,8,10,12,20-pentamethyl-2,10,11,12,13,14-hexahydro-8H-5,3-(azenometheno)tripyrazolo[3,4-f:3,4′-j:4″,3″-n][1,4]oxazacyclopentadecin-16-yl]oxy}acetonitrile]	0.39	13.8	57.3	2.7	3.31	9.62	1.09	2.38	0.6	0.36
Cc1nn(C)c2c1-c1cc3c(n[nH]c3cn1)/C=C/c1c(OCC#N)nn([C@@H](C)CO)c1CN(C)CCO2 [Ex. 70, {[(17E)-14-[(2S)-1-hydroxypropan-2-yl]-6,8,12-trimethyl-2,10,11,12,13,14-hexahydro-8H-5,3-(azenometheno)tripyrazolo[3,4-f:3′,4′-j:4″,3″-n][1,4]oxazacyclopentadecin-16-yl]oxy}acetonitrile]	0.41	–	–	–	–	–	0.69	–	0.31	0.16
Cc1nn([C@@H](C)CO)c2c1/C=C/c1n[nH]c3cnc(cc13)-c1c(C)nn(C)c1O[C@@H](C)CN(C)C2 [Ex. 46, (2S)-2-[(10S,17E)-6,8,10,12,16-pentamethyl-2,8,10,11,12,13-hexahydro-14H-5,3-(azenometheno)tripyrazolo[3,4-f:3′,4′-j:4″,3″-n][1,4]oxazacyclopentadecin-14-yl]propan-1-ol]	0.36	–	–	–	–	–	0.4	–	0.23	0.15
Cc1nn(C)c2c1-c1cc3c(n[nH]c3cn1)/C=C/c1c(OCC#N)nn(CCO)c1CN(C)[C@H](C)CO2 [Ex. 49, {[(11R,17E)-14-(2-hydroxyethyl)-6,8,11,12-tetramethyl-2,10,11,12,13,14-hexahydro-8H-5,3-(azenometheno)tripyrazolo[3,4-f:3′,4′-j:4″,3″-n][1,4]oxazacyclopentadecin-16-yl]oxy}acetonitrile]	0.19	–	–	–	–	–	0.34	–	0.21	0.12

Continued, values first:

IC50 [1] [nM]	IC50 [2] [nM]	IC50 [3] [nM]	IC50 [4] [nM]	IC50 [5] [nM]	IC50 [6] [nM]	IC50 [7] [nM]	IC50 [8] [nM]	IC50 [9] [nM]	IC50 [10] [nM]	Structure (SMILES)
0.69	1.81	16	1.13	5.54	17.6	1.65	2.98	1.08	0.56	CCN1Cc2c(c(OCC#N)nn2[C@@H](C)CO)/C=C/c2n[nH]c3cnc(cc23)-c2c(C)nn(C)c2O[C@@H](C)C1 [Ex. 67, {[(10S,17E)-12-ethyl-14-[(2S)-1-hydroxypropan-2-yl]-6,8,10-trimethyl-2,10,11,12,13,14-hexahydro-8H-5,3-(azenometheno)tripyrazolo[3,4-f:3′,4′-j:4″,3″-n][1,4]oxazacyclopentadecin-16-yl]oxy}acetonitrile]
0.42	1.08	13.2	0.44	1.54	16.9	1.58	1.13	0.74	0.42	CCc1nn(CCO)c2c1/C=C/c1n[nH]c3cnc(cc13)-c1c(C)nn(C)c1O[C@@H](C)CN(CC)C2 [Ex. 62, 2-[(10S,17E)-12,16-diethyl-6,8,10-trimethyl-2,8,10,11,12,13-hexahydro-14H-5,3-(azenometheno)tripyrazolo[3,4-f:3′,4′-j:4″,3″-n][1,4]oxazacyclopentadecin-14-yl]ethan-1-ol]
0.11	4.22	–	0.39	–	1.75	0.31	–	0.28	0.12	CCOc1nn(CCO)c2c1/C=C/c1n[nH]c3cnc(cc13)-c1cnn(C)c1O[C@@H](C)CN(CC)C2 [Ex. 34, 2-[(10S,17E)-16-ethoxy-12-ethyl-8,10-dimethyl-2,8,10,11,12,13-hexahydro-14H-5,3-(azenometheno)tripyrazolo[3,4-f:3′,4′-j:4″,3″-n][1,4]oxazacyclopentadecin-14-yl]ethan-1-ol]
1.62	–	–	–	–	–	0.79	–	0.71	0.31	CCOc1nn(CCO)c2c1/C=C/c1n[nH]c3c(C)nc(cc13)-c1cnn(C)c1O[C@H](C)CN(CC)C2 [Ex. 37, 2-[(10R,17E)-16-ethoxy-12-ethyl-8,10,20-trimethyl-2,8,10,11,12,13-hexahydro-14H-5,3-(azenometheno)tripyrazolo[3,4-f:3′,4′-j:4″,3″-n][1,4]oxazacyclopentadecin-14-yl]ethan-1-ol]
1.38	–	–	–	–	–	0.72	–	0.53	0.25	CCc1nn(CCO)c2c1/C=C/c1n[nH]c3cnc(cc13)-c1c(C)nn(C)c1O[C@H](C)CN(CC)C2 [Ex. 55, 2-[(10R,17E)-12,16-diethyl-6,8,10-trimethyl-2,8,10,11,12,13-hexahydro-14H-5,3-(azenometheno)tripyrazolo[3,4-f:3′,4′-j:4″,3″-n][1,4]oxazacyclopentadecin-14-yl]ethan-1-ol]
